{"source": "patent US7943586B2", "about": "“Antineoplastic agents targeted via glut transporters” (The Trustees of the University of Pennsylvania, priority 2003, dated 2011)", "key": {"[1]": {"system": "AR42J tumors (pancreatic acinar carcinoma)", "experiment": "In vivo NIR phased array optical imaging of submerged AR42J tumors in nu/nu mice", "design": "species or system mouse", "conditions": "3.5 hours after tail vein injection of 200 μL, tumor 1.5 cm deep", "text": "In vivo NIR optical imaging system: To image and localize subsurface fluorochrome labeled tumors, an NLR imaging system utilizing diffusion photons (Patterson, M. S.; Chance, B.; Wilson, B. C., Time resolved reflectance and transmittance for the non-invasive measurement of tissue optical properties. Applied Optics 1989, 28, 2331-2336.\nFishkin, J. B.; Gratton, E., Propagation of photon-density waves in strongly scattering media containing an absorbing seni-infinite plane bounded by a straight edge. Journal of the Optical Society of America A 1993, 10, 127-140.) has been developed. The in vivo fluorescence optical imaging system consists of a pair of laser diodes operating at 780 nm. […]\nIntes, X.; Chen, Y.; Li, X. D.; Chance, B., Detection limit enhancement of fluorescent heterogeneities in turbid media by dual-interfering excitation. […] A 3-mm-in-diameter fiber bundle collects the fluorescence signal from the fluorophore taken by in the tumor. […] The fluorescence signal is then detected by the photomultiplier tube (PMT) and demodulated by the 50 MD receiver to obtain the amplitude and phase information. […] (Chen, Y.; Zheng, G.; Zhang, Z. H.; Blessington, D.; Zhang, M.; Li, H.; Iiu, Q.; Zhou, L.; Intes, X.; Achilefu, S.; Chance, B., Metabolism-enhanced tumor localization by fluorescence imaging: in vivo animal studies. Optics Letters 2003, 28, (21), 2070-2072). […]"}, "9L glioma": {"system": "9L glioma", "type": "in vivo, rat", "protocol": "Animals: Rat 9L glioma was implanted on the flanks of male Fisher 344 rats (150 -200 g) via subcutaneous injection of 0.1 mL, ˜10^6 9L glioma cells. Within ten days, tumors grew to the desired size of 1 cm in diameter.\nAfter not feeding animals for 24 hours, the rats were anaesthetized via intraperitoneal injection of Ketamine (75 mg/kg) and Xylazine (10 mg/kg). Pyro-2DG (2 mL, concentration: 0.25 mg/mL) was injected via tail vein infusion over a period of 1 hour (dose: 2.5 mg/kg). Thirty minutes later, the rats were anesthetized again and subjected to PDT.\nPDT Protocol: A “point treatment” protocol was designed for evaluating PDT response of Pyro-2DG. PDT was carried out using a KTP YAG pumped dye module (Laserscope, San Jose, Calif.) tuned to produce 670 nm light. Light delivery was through a 1 mm fiber to create a treatment spot of 0.96 mm in diameter when the fiber was held closely adjacent to the tumor. The light field was fixed in position at the center of the tumor by mounting the fiber in the center of a circular plate which was glued to the anesthetized animal. The light was delivered at a fluence rate of 75 mW/cm^2 to a total dose of 175 J/cm^2. Laser power output was measured with a power meter (Coherent, Auburn, Calif.).\nFluorescence Imaging of Tumors (Quistorff, B., Haselgrove, J. C., and Chance, B. (1985) High spatial resolution readout of 3-D metabolic organ structure: an automated, low-temperature redox ratio-scanning instrument. Anal. Biochem. 148, 389-400; Gu, Y. Q., Qian, Z. Y., Chen, J. X., Blessington, D., Ramanujam, N., and Chance, B. (2002) High-resolution three-dimensional scanning optical image system for intrinsic and extrinsic contrast agents in tissue. Rev. Sci. Instruments 73, 172-178; Ramanujam, N., Richards-Kortum, R., Thomsen, S., Mahadevan-Jansen, A., Follen M., and Chance B. (2001) Low temperature fluorescence imaging of freeze-trapped human cervical tissues. Opt. Express 8, 335-343): Immediately after PDT, animals were immersed in pre-cooled isopentane (−150° C.) and transferred to liquid nitrogen (−196° C.) 5 minutes later. Tumors were then surgically excised, embedded in a mixture of ethanol-glycerol-water (freeze point: −30° C.), and mounted at low temperature for 3D surface fluorometric scanning. […] The fluorescence signal was automatically digitized and recorded on a PC. The redox ratio of FP/(FP+PN) was calculated with MATLAB.\nA “point treatment” protocol for evaluating PDT response of Pyro-2DG was designed. […] Based on the absorption and emission maxima of Pyro-2DG (λex=665 nm; λem=720 nm), the 9L tumor was treated with 670 nm laser light, and a 700 nm long pass filter was incorporated into the 3D fluorescence scanner for collecting the Pyro-2DG fluorescence at 720 nm. […]"}, "[2]": {"experiment": "Water solubility / miscibility of Pyro-2DG", "type": "physicochemical"}, "[3]": {"experiment": "Biodistribution in organs of a normal Fisher 344 rat by Cryo-imager", "type": "in vivo", "conditions": "1 hour after intravenous administration, preliminary", "protocol": "FIG. 9. Pyro-2DG uptake in different organs of a Fisher 344 rat after 1 h tail vein infusion of 2 ml of 2.5 mg/kg Pyro-2DG. Liver (top left), kidney (bottom left), spleen (bottom middle) and brain (bottom right). Images of the frozen liver and of the control liver (no Pyro-2DG), respectively, appear in the top middle and right hand panels.\nIn order to determine the biodistribution of the Pyro-2DG, a normal Fisher 344 rat was sacrificed and different organs were scanned for Pyro-2DG fluorescence with Cryo-imager 1 hour after Pyro-2DG was intravenously administered."}, "9L glioma cells": {"system": "9L glioma cells", "experiment": "Confocal microscopy of uptake and localization in 9L glioma cells, with or without D-glucose", "type": "cell-based, rat", "conditions": "for uptake / localization in 9L glioma cells / effect of D-glucose on uptake / localization in 9L glioma cells: 50 μM, 30 min, 37° C.; for effect of D-glucose on uptake / localization in 9L glioma cells: 50 mM D-glucose; for subcellular localization in 9L glioma cells: 100 μM Pyro-2DG with 10 μg/ml Rhodamine-123, 15 min post-incubation", "protocol": "Confocal Microscopic Studies: 9L glioma cells were grown for 5 days in 4-well Lab-Tek chamber slides (Naperville, Ill.). Before the cell experiments, the culture medium was replaced by preincubation medium (medium with 1% (w/v) BSA instead of FBS). The cells were washed three times with preincubation medium (for 15, 15, and 30 min), and cultured in this medium for a further 20 hours. Experiments were started, after two quick washes with preincubation medium, by the addition of preincubation medium containing the indicated amounts of Pyro-2DG and/or D-Glucose. After 30 minutes incubation at 37° C., the cells were washed five times with ice-cold PBS containing 0.8% BSA, two times with PBS alone, and fixed for 20 minutes with 2% formaldehyde in PBS at room temperature. Then the chamber slides were mounted and sealed for confocal microscopic analysis.\n9L glioma cells, obtained from Department of Radiation Oncology at University of Pennsylvania, were cultured in Modified Eagle's Medium (NEM) supplemented with 15% newborn calf serum (NCS), 100 U/ml penicillin-streptomycin. Murine melanoma B16 cells, obtained from Dr. Theo van Berkel's laboratory at the University of Leiden, Netherlands, were cultured in Dulbeco's modified Eagle's medium (DMM) supplemented with 10% fetal bovine serum (FBS) and 100 U/n-d penicillin-streptomycin Cells were grown at 37° C. in an atmosphere of 5% CO2 in a humidified incubator. Cells were grown for 5 days in 4-well Lab-Tek chamber slides (Naperville, Ill.) before the experiment. Indicated amounts of NIRF-2DGs with or without D-Glucose and Rbodarninc-123 were incubated with 9L glioma cells/B16 melanoma cells at 37° C. for 30 min after 3 washes with Dulbecco's Phosphate Buffered Saline (D-PBS). After incubation, the cells were washed five times with ice-cold PBS and Fixed for 20 minutes with 2% formaldehyde in PBS at room temperature. Then the chamber slides were mounted and sealed for confocal niicroscopic analysis. Confocal aticroscopic images were obtained with TCS SPII laser scanning confocal microscope (LSCM) (Heidelber, Germany)."}, "[4]": {"conditions": "after PDT, 670 nm, 75 mW/cm^2, 175 J/cm^2"}}, "data": [{"compound": "2-deoxyglucose conjugate of Bacteriopurpurin-18-N-3′-(isothiocyanate)-propylimide [BChlPP-2DG]", "values": [{"measurement": "enhancement of the tumor region", "setting": "[1]", "result": "enhanced"}]}, {"compound": "CC1(C)C(/C=C/C=C/C=C/C=C2\\N(CCCCS(=O)(=O)O)c3ccc4ccccc4c3C2(C)C)=[N+](CCCCS(=O)(=O)[O-])c2ccc3ccccc3c21", "note": "[ICG, Indocyanine Green, reference compound]", "values": [{"measurement": "enhancement of the tumor region", "setting": "[1]", "result": "no significant enhancement"}]}, {"compound": "Pyropheophorbide-2-deoxyglucosamide [Pyro-2DG]", "values": [{"measurement": "NADH fluorescence of irradiated spot", "setting": "9L glioma; [4]", "result": "significant decrease"}, {"measurement": "PP fluorescence of irradiated spot", "setting": "9L glioma; [4]", "result": "marked increase"}, {"measurement": "redox ratio of the tumor FP/(FP+PN)", "setting": "9L glioma; after PDT, irradiated region", "result": "dramatic increase"}, {"measurement": "effect on mitochondrial activities (redox state) of the tumor", "setting": "9L glioma; rat, in vivo", "result": "no effect on the mitochondrial activities of the tumor"}, {"measurement": "miscibility with water", "setting": "[2]; formulation with detergent (1% Tween 80)", "result": "completely miscible with water"}, {"measurement": "water solubility", "setting": "[2]; without detergent", "result": "only partially water-soluble"}, {"measurement": "accumulation in liver", "setting": "[3]", "result": "accumulated predominantly in liver"}, {"measurement": "accumulation in spleen and kidney", "setting": "[3]", "result": "lesser accumulation in spleen and kidney"}, {"measurement": "crossing of the blood-brain barrier", "setting": "[3]", "result": "does not cross the blood-brain barrier"}, {"measurement": "uptake / localization in 9L glioma cells", "setting": "9L glioma cells", "result": "localizes within 9L glioma cells"}, {"measurement": "effect of D-glucose on uptake / localization in 9L glioma cells", "setting": "9L glioma cells", "result": "competitively inhibited by D-glucose"}, {"measurement": "subcellular localization in 9L glioma cells", "setting": "9L glioma cells", "result": "localize in mitochondria"}]}, {"compound": "Rhodamine 123 [Rhodamine-123, reference compound]", "values": [{"measurement": "subcellular localization in 9L glioma cells", "setting": "9L glioma cells", "result": "localize in mitochondria"}]}, {"compound": "pyropheophorbide a [reference compound]", "values": [{"measurement": "uptake / localization in 9L glioma cells", "setting": "9L glioma cells", "result": "concentration dependent"}, {"measurement": "effect of D-glucose on uptake / localization in 9L glioma cells", "setting": "9L glioma cells", "result": "not inhibited by D-glucose"}]}]}
